Measurements reported in patent US7078195B2, “Antibiotics AA-896” (Wyeth Holdings Corporation, priority 2001, dated 2006).
Values belong to the compound of their own block, whether it stands above or below them.

What was measured:
Experiment in all cases: Broth dilution MIC
Assay type in all cases: cell-based
Settings in all cases: Mueller-Hinton broth, 18 hours at 35° C.
[1] = tested on: E. faecalis GC 842
Protocol: (§1) The in vitro antibacterial activity of AA-896-A1, AA-896-A2, AA-896-A3, AA-896-A4, AA-896-A5, AA-896-B1, AA-896-B2, AA-896-B3, AA-896-B4, AA-896-B5, AA-896-B6, AA-896-B7, AA-896-C1, AA-896-C2, AA-896-C3, AA-896-C4, AA-896-D1, AA896-D2 and AA-896-D3 is determined against a spectrum of Gram-positive and Gram-negative bacteria by a standard broth dilution method. Serial dilution of the compounds are made in Mueller-Hinton broth and inoculated with a bacterial suspension. The lowest concentration of compound that inhibited the growth of a bacterial strain after 18 hours of incubation at 35° C. is reported as the minimal inhibitory concentration (MIC) for that strain.

[2] = tested on: E. faecalis GC 242
Protocol: as §1

[3] = tested on: E. coli GC 4560
Protocol: as §1

[4] = tested on: K. pneumoniae GC 4534
Protocol: as §1

[5] = tested on: E. coli GC 3226
Protocol: as §1

[6] = tested on: E. coli GC 4559
Protocol: as §1

[7] = tested on: S. aureus GC 4536
Protocol: as §1

[8] = tested on: P. aeruginosa GC 2214
Protocol: as §1

[9] = tested on: CNS GC 4538
Protocol: as §1

[10] = tested on: CNS GC 4537
Protocol: as §1

[11] = tested on: P. aeruginosa GC 4532
Protocol: as §1

[12] = tested on: M. morganii GC 4531
Protocol: as §1

[13] = tested on: P. rettgeri GC 4530
Protocol: as §1

[14] = tested on: S. aureus GC 1131
Protocol: as §1

[15] = tested on: E. coli GC 2203
Protocol: as §1

[16] = tested on: E. faecalis GC 4555
Protocol: as §1

[17] = tested on: E. cloacae GC 3783
Protocol: as §1

[18] = tested on: CNS GC 4547
Protocol: as §1

[19] = tested on: S. marcescens GC 4077
Protocol: as §1

[20] = tested on: S. aureus GC 2216
Protocol: as §1

Compound: 5-O-[5-Amino-5-deoxy-β-D-ribofuranosyl]-6-[[3-[3-[[13-(carbamimidoylhydroxyamino)-tridecanoyl]oxy]-2-[2-[[(1-carboxy-2-methylpropyl)carbamoyl]amino]-2-(hexahydro-2-iminopyrimidin-4-yl)acetamido]-4-methylpentanamido]propyl]amino]-1,6-dideoxy-1-(3,4-dihydro-2,4-dioxopyrimidin-1(2H)-yl)-β-D-heptofuranuronic acid [AA-896-A4]
Antimicrobial Activity (MIC) [1]: 32 µg/mL
Antimicrobial Activity (MIC) [2]: 32 µg/mL
Antimicrobial Activity (MIC) [3]: 0.12 µg/mL
Antimicrobial Activity (MIC) [4]: >32 µg/mL
Antimicrobial Activity (MIC) [5]: 8 µg/mL
Antimicrobial Activity (MIC) [6]: 32 µg/mL
Antimicrobial Activity (MIC) [7]: 8 µg/mL
Antimicrobial Activity (MIC) [8]: 32 µg/mL
Antimicrobial Activity (MIC) [9]: 2 µg/mL
Antimicrobial Activity (MIC) [10]: 4 µg/mL
Antimicrobial Activity (MIC) [11]: 32 µg/mL
Antimicrobial Activity (MIC) [12]: >32 µg/mL
Antimicrobial Activity (MIC) [13]: >32 µg/mL
Antimicrobial Activity (MIC) [14]: 8 µg/mL
Antimicrobial Activity (MIC) [15]: 16 µg/mL
Antimicrobial Activity (MIC) [16]: 32 µg/mL
Antimicrobial Activity (MIC) [17]: 1 µg/mL
Antimicrobial Activity (MIC) [18]: 8 µg/mL
Antimicrobial Activity (MIC) [19]: >32 µg/mL
Antimicrobial Activity (MIC) [20]: 4 µg/mL

Compound: CCC(C)CCCCC(=O)OC(C(C)C)C(NC(=O)C(NC(=O)NC(C(=O)O)C(C)C)C1CCNC(=N)N1)C(=O)NCCCNC(C(=O)O)C(O[C@@H]1O[C@H](CN)[C@@H](O)[C@H]1OC)C1OC(n2ccc(=O)[nH]c2=O)C(O)C1O (stereo partly drawn) [AA-896-B3, 5-O-[5-Amino-5-deoxy-2-O-methyl-β-D-ribofuranosyl]-6-[[3-[2-[2-[[(1-carboxy-2-methyl-propyl)carbamoyl]amino]-2-(hexahydro-2-iminopyrimidin-4-yl)acetamido]-4-methyl-3-[(6-methyloctanoyl)oxy]pentanamido]propyl]amino]-1,6-dideoxy-1-(3,4-dihydro-2,4-dioxopyrimidin-1(2H)-yl)-β-D-heptofuranuronic acid]
Antimicrobial Activity (MIC) [1]: >32 µg/mL
Antimicrobial Activity (MIC) [2]: >32 µg/mL
Antimicrobial Activity (MIC) [3]: 0.06 µg/mL
Antimicrobial Activity (MIC) [4]: >32 µg/mL
Antimicrobial Activity (MIC) [5]: 32 µg/mL
Antimicrobial Activity (MIC) [6]: >32 µg/mL
Antimicrobial Activity (MIC) [7]: >32 µg/mL
Antimicrobial Activity (MIC) [8]: >32 µg/mL
Antimicrobial Activity (MIC) [9]: >32 µg/mL
Antimicrobial Activity (MIC) [10]: >32 µg/mL
Antimicrobial Activity (MIC) [11]: >32 µg/mL
Antimicrobial Activity (MIC) [12]: >32 µg/mL
Antimicrobial Activity (MIC) [13]: >32 µg/mL
Antimicrobial Activity (MIC) [14]: >32 µg/mL
Antimicrobial Activity (MIC) [15]: >32 µg/mL
Antimicrobial Activity (MIC) [16]: >32 µg/mL
Antimicrobial Activity (MIC) [17]: 16 µg/mL
Antimicrobial Activity (MIC) [18]: >32 µg/mL
Antimicrobial Activity (MIC) [19]: >32 µg/mL
Antimicrobial Activity (MIC) [20]: >32 µg/mL

The remaining lines, values ahead:

Antimicrobial Activity (MIC) [1]: >32 µg/mL
Antimicrobial Activity (MIC) [2]: >32 µg/mL
Antimicrobial Activity (MIC) [3]: 1 µg/mL
Antimicrobial Activity (MIC) [4]: >32 µg/mL
Antimicrobial Activity (MIC) [5]: 32 µg/mL
Antimicrobial Activity (MIC) [6]: >32 µg/mL
Antimicrobial Activity (MIC) [7]: >32 µg/mL
Antimicrobial Activity (MIC) [8]: 32 µg/mL
Antimicrobial Activity (MIC) [9]: >32 µg/mL
Antimicrobial Activity (MIC) [10]: >32 µg/mL
Antimicrobial Activity (MIC) [11]: >32 µg/mL
Antimicrobial Activity (MIC) [12]: >32 µg/mL
Antimicrobial Activity (MIC) [13]: >32 µg/mL
Antimicrobial Activity (MIC) [14]: >32 µg/mL
Antimicrobial Activity (MIC) [15]: 32 µg/mL
Antimicrobial Activity (MIC) [16]: >32 µg/mL
Antimicrobial Activity (MIC) [17]: 32 µg/mL
Antimicrobial Activity (MIC) [18]: >32 µg/mL
Antimicrobial Activity (MIC) [19]: >32 µg/mL
Antimicrobial Activity (MIC) [20]: >32 µg/mL
Compound: COC1C(OC(C(NCCCNC(=O)C(NC(=O)C(NC(=O)NC(C(=O)O)C(C)C)C2CCNC(=N)N2)C(O)C(C)C)C(=O)O)C2OC(n3ccc(=O)[nH]c3=O)C(O)C2O)OC(CN)C1O [AA-896-C1, 5-O-[5-Amino-5-deoxy-2-O-methyl-β-D-ribofuranosyl]-6-[[3-[2-[2-[[(1-carboxy-2-methyl-propyl)carbamoyl]amino]-2-(hexahydro-2-iminopyrimidin-4-yl)acetamido]-3-hydroxy-4-methylpentanamido]propyl]amino]-1,6-dideoxy-1-(3,4-dihydro-2,4-dioxopyrimidin-1(2H)-yl)-β-D-heptofuranuronic acid]

Antimicrobial Activity (MIC) [1]: >32 µg/mL
Antimicrobial Activity (MIC) [2]: >32 µg/mL
Antimicrobial Activity (MIC) [3]: 2 µg/mL
Antimicrobial Activity (MIC) [4]: >32 µg/mL
Antimicrobial Activity (MIC) [5]: 16 µg/mL
Antimicrobial Activity (MIC) [6]: >32 µg/mL
Antimicrobial Activity (MIC) [7]: >32 µg/mL
Antimicrobial Activity (MIC) [8]: 32 µg/mL
Antimicrobial Activity (MIC) [9]: >32 µg/mL
Antimicrobial Activity (MIC) [10]: >32 µg/mL
Antimicrobial Activity (MIC) [11]: 32 µg/mL
Antimicrobial Activity (MIC) [12]: >32 µg/mL
Antimicrobial Activity (MIC) [13]: >32 µg/mL
Antimicrobial Activity (MIC) [14]: >32 µg/mL
Antimicrobial Activity (MIC) [15]: 16 µg/mL
Antimicrobial Activity (MIC) [16]: >32 µg/mL
Antimicrobial Activity (MIC) [17]: 16 µg/mL
Antimicrobial Activity (MIC) [18]: >32 µg/mL
Antimicrobial Activity (MIC) [19]: >32 µg/mL
Antimicrobial Activity (MIC) [20]: >32 µg/mL
Compound: CC(C)C(NC(=O)NC(C(=O)NC(C(=O)NCCCNC(C(=O)O)C(O[C@@H]1O[C@H](CN)[C@@H](O)[C@H]1O)C1OC(n2ccc(=O)[nH]c2=O)C(O)C1O)C(O)C(C)C)C1CCNC(=N)N1)C(=O)O (stereo partly drawn) [AA-896-C2, 5-O-[5-Amino-5-deoxy-β-D-ribofuranosyl]-6-[[3-[2-[2-[[(1-carboxy-2-methylpropyl)-carbamoyl]amino]-2-(hexahydro-2-iminopyrimidin-4-yl)acetamido]-3-hydroxy-4-methyl-pentanamido]propyl]amino]-1,6-dideoxy-1-(3,4-dihydro-2,4-dioxopyrimidin-1(2H)-yl)-β-D-heptofuranuronic acid]

Antimicrobial Activity (MIC) [1]: >32 µg/mL
Antimicrobial Activity (MIC) [2]: >32 µg/mL
Antimicrobial Activity (MIC) [3]: 0.25 µg/mL
Antimicrobial Activity (MIC) [4]: >32 µg/mL
Antimicrobial Activity (MIC) [5]: 16 µg/mL
Antimicrobial Activity (MIC) [6]: 32 µg/mL
Antimicrobial Activity (MIC) [7]: >32 µg/mL
Antimicrobial Activity (MIC) [8]: 32 µg/mL
Antimicrobial Activity (MIC) [9]: >32 µg/mL
Antimicrobial Activity (MIC) [10]: >32 µg/mL
Antimicrobial Activity (MIC) [11]: 32 µg/mL
Antimicrobial Activity (MIC) [12]: >32 µg/mL
Antimicrobial Activity (MIC) [13]: >32 µg/mL
Antimicrobial Activity (MIC) [14]: >32 µg/mL
Antimicrobial Activity (MIC) [15]: 16 µg/mL
Antimicrobial Activity (MIC) [16]: >32 µg/mL
Antimicrobial Activity (MIC) [17]: 16 µg/mL
Antimicrobial Activity (MIC) [18]: >32 µg/mL
Antimicrobial Activity (MIC) [19]: >32 µg/mL
Antimicrobial Activity (MIC) [20]: >32 µg/mL
Compound: CC(C)CC(NC(=O)C(NC(=O)NC(C(=O)O)C(C)C)C1CCNC(=N)N1)C(=O)NCCCNC(C(=O)O)C(OC1OC(CN)C(O)C1O)C1OC(n2ccc(=O)[nH]c2=O)C(O)C1O [AA-896-D2, 5-O-[5-Amino-5-deoxy-β-D-ribofuranosyl]-6-[[3-[2-[2-[[(1-carboxy-2-methylpropyl)-carbamoyl]amino]-2-(hexahydro-2-iminopyrimidin-4-yl)acetamido]-4-methylpentanamido]-propyl]amino]-1,6-dideoxy-1-(3,4-dihydro-2,4-dioxopyrimidin-1(2H)-yl)-β-D-heptofuran-uronic acid]
